Assay results: patent US12479847B2 (DANA-FARBER CANCER INSTITUTE, INC., priority 2019, dated 2025)
Where two headings read alike, the source gives them in different places.

Key:
Assay in all cases: KINOMEscan (ScanMAX) kinase profiling
Type in all cases: binding
panel of 468 kinases [1] = molecular target: T1, panel of 468 kinases (Homo sapiens, UniProt Q96GD4); settings: AURKB; 1 μM; read-out: % control
T1 construct: purchased KINOMEscan (ScanMAX) service

panel of 468 kinases [2] = molecular target: T2, panel of 468 kinases (Homo sapiens, UniProt P22607, G697C); settings: FGFR3(G697C); 1 μM; read-out: % control
T2 construct: purchased KINOMEscan (ScanMAX) service

panel of 468 kinases [3] = molecular target: T3, panel of 468 kinases (Homo sapiens, UniProt Q9C098); settings: DCAMKL3; 1 μM; read-out: % control
T3 construct: purchased KINOMEscan (ScanMAX) service

panel of 468 kinases [4] = molecular target: T4, panel of 468 kinases (Homo sapiens, UniProt Q15759); settings: p38-beta; 1 μM; read-out: % control
T4 construct: purchased KINOMEscan (ScanMAX) service

panel of 468 kinases [5] = molecular target: T5, panel of 468 kinases (Homo sapiens, UniProt P00533, DEL746-750); settings: EGFR(E746-A750del); 1 μM; read-out: % control
T5 construct: purchased KINOMEscan (ScanMAX) service

panel of 468 kinases [6] = molecular target: T6, panel of 468 kinases (Homo sapiens, UniProt Q15208); settings: NDR1; 1 μM; read-out: % control
T6 construct: purchased KINOMEscan (ScanMAX) service

panel of 468 kinases [7] = molecular target: T7, panel of 468 kinases (Homo sapiens, UniProt P00533, L861Q); settings: EGFR(L861Q); 1 μM; read-out: % control
T7 construct: purchased KINOMEscan (ScanMAX) service

panel of 468 kinases [8] = molecular target: T8, panel of 468 kinases (Homo sapiens, UniProt P51956); settings: NEK3; 1 μM; read-out: % control
T8 construct: purchased KINOMEscan (ScanMAX) service
T8 sequence (P51956 1-506): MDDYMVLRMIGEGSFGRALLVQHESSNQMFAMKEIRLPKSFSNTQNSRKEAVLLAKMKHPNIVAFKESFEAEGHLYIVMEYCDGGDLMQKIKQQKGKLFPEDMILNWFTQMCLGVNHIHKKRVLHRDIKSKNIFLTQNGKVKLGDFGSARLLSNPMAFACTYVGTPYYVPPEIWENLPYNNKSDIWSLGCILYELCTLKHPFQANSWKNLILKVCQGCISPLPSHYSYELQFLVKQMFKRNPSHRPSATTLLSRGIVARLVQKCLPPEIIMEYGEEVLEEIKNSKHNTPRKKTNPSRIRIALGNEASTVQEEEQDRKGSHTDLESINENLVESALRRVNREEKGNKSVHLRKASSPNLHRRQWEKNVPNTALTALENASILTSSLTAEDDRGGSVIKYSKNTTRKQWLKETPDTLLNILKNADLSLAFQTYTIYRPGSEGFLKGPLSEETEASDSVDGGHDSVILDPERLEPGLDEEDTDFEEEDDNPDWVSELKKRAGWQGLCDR

panel of 468 kinases [9] = molecular target: T9, panel of 468 kinases (Homo sapiens, UniProt P10721); settings: 1 μM, read-out: % control
T9 construct: purchased KINOMEscan (ScanMAX) service

panel of 468 kinases [10] = molecular target: T10, panel of 468 kinases (Homo sapiens, UniProt P54646); settings: AMPK-alpha2; 1 μM; read-out: % control
T10 construct: purchased KINOMEscan (ScanMAX) service

panel of 468 kinases [11] = molecular target: T11, panel of 468 kinases (Homo sapiens, UniProt Q16539); settings: p38-alpha; 1 μM; read-out: % control
T11 construct: purchased KINOMEscan (ScanMAX) service

panel of 468 kinases [12] = molecular target: T12, panel of 468 kinases (Homo sapiens, UniProt O00238); settings: BMPR1B; 1 μM; read-out: % control
T12 construct: purchased KINOMEscan (ScanMAX) service

panel of 468 kinases [13] = molecular target: T13, panel of 468 kinases (Homo sapiens, UniProt P12931); settings: SRC; 1 μM; read-out: % control
T13 construct: purchased KINOMEscan (ScanMAX) service

panel of 468 kinases [14] = molecular target: T14, panel of 468 kinases (Homo sapiens, UniProt P07949, V804M); settings: RET(V804M); 1 μM; read-out: % control
T14 construct: purchased KINOMEscan (ScanMAX) service
T14 sequence (P07949 29-1114 V804M): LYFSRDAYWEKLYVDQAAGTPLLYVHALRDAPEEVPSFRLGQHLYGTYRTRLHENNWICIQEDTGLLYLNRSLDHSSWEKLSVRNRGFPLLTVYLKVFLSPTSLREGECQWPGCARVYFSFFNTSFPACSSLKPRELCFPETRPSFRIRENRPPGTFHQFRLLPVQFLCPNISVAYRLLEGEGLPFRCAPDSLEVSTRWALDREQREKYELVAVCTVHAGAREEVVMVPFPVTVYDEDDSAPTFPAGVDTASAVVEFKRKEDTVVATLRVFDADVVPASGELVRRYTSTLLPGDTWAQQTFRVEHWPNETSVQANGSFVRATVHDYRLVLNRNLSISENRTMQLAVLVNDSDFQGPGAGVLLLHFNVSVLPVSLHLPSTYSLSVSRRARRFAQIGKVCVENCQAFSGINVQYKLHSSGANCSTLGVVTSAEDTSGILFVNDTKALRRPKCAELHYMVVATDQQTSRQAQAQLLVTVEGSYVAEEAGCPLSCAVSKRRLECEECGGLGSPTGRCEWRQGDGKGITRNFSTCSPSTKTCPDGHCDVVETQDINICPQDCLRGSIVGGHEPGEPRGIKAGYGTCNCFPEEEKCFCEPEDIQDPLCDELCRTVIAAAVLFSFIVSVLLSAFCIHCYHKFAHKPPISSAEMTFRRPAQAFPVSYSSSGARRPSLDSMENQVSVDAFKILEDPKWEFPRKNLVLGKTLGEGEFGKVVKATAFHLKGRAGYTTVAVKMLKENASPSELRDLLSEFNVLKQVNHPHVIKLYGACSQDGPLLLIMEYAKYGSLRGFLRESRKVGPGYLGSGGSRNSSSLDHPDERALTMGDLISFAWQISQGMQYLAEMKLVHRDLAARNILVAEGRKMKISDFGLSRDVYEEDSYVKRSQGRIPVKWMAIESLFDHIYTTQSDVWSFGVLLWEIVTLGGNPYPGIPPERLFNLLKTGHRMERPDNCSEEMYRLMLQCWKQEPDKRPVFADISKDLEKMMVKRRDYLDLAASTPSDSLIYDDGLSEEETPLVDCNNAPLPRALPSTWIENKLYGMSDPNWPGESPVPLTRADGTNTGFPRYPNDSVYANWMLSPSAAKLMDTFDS

T10 sequence (P54646 whole entry): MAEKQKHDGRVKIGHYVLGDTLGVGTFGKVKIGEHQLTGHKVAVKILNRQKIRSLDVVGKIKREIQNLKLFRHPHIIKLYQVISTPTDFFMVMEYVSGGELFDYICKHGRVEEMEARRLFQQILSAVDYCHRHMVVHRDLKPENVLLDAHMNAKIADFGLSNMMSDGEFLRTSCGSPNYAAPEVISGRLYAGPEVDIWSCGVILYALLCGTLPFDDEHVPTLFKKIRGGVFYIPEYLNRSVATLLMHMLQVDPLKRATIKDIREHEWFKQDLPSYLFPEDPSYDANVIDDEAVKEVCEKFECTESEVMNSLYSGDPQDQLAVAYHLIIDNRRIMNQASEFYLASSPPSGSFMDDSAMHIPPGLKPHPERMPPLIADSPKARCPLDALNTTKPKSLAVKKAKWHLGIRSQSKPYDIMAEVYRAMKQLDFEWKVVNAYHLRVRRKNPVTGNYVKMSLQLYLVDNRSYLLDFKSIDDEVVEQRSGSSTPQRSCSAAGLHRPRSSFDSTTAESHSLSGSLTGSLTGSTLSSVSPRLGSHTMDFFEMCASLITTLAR
T1 sequence (Q96GD4 whole entry): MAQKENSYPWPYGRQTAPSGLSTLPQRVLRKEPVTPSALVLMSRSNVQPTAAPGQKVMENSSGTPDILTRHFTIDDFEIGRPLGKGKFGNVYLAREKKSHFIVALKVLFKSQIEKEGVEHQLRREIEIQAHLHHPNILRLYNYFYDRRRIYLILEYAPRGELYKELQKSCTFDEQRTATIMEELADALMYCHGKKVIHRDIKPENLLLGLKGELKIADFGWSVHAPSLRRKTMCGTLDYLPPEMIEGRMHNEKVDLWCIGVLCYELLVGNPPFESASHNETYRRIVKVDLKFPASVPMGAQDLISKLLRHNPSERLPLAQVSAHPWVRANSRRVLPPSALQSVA
T11 sequence (Q16539 whole entry): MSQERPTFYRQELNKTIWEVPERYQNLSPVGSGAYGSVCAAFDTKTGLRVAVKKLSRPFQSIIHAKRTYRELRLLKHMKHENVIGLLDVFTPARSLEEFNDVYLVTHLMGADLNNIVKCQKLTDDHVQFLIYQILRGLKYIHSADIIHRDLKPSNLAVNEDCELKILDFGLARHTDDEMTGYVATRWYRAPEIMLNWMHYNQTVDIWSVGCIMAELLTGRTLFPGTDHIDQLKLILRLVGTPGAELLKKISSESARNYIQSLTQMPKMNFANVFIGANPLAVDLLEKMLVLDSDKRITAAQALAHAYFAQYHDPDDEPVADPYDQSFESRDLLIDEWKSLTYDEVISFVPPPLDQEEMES
T7 sequence (P00533 25-1210 L861Q): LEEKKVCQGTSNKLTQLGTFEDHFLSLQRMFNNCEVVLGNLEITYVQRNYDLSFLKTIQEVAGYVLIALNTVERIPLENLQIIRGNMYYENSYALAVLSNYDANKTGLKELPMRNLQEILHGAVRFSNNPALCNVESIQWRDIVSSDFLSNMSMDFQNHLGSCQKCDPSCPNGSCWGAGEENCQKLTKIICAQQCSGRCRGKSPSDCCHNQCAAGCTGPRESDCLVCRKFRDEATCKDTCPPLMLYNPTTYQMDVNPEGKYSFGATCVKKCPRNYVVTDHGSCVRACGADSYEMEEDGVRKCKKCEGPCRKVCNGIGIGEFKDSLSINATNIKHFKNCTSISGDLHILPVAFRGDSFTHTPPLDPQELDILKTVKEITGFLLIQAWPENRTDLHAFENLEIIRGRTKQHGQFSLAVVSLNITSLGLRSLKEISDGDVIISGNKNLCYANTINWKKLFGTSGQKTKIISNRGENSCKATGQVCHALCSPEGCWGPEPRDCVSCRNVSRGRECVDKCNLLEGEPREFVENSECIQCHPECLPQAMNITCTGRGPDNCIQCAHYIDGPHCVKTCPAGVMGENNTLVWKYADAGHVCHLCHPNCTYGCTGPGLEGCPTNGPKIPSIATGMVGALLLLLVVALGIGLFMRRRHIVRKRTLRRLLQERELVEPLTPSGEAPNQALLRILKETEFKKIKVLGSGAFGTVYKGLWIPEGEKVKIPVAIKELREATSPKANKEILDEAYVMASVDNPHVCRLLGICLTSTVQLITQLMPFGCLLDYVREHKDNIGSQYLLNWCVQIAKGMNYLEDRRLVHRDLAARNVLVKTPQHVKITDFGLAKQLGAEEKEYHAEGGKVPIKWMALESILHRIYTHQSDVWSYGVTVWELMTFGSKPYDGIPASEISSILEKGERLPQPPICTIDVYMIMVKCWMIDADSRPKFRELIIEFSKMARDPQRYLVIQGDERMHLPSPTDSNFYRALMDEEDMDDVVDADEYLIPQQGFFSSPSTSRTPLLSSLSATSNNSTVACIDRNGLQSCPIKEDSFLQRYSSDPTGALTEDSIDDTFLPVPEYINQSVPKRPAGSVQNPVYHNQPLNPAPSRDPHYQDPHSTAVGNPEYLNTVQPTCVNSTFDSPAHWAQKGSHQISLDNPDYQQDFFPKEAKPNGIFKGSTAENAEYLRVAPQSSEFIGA
T5 sequence (P00533 with tags, fused parts or gaps DEL746-750): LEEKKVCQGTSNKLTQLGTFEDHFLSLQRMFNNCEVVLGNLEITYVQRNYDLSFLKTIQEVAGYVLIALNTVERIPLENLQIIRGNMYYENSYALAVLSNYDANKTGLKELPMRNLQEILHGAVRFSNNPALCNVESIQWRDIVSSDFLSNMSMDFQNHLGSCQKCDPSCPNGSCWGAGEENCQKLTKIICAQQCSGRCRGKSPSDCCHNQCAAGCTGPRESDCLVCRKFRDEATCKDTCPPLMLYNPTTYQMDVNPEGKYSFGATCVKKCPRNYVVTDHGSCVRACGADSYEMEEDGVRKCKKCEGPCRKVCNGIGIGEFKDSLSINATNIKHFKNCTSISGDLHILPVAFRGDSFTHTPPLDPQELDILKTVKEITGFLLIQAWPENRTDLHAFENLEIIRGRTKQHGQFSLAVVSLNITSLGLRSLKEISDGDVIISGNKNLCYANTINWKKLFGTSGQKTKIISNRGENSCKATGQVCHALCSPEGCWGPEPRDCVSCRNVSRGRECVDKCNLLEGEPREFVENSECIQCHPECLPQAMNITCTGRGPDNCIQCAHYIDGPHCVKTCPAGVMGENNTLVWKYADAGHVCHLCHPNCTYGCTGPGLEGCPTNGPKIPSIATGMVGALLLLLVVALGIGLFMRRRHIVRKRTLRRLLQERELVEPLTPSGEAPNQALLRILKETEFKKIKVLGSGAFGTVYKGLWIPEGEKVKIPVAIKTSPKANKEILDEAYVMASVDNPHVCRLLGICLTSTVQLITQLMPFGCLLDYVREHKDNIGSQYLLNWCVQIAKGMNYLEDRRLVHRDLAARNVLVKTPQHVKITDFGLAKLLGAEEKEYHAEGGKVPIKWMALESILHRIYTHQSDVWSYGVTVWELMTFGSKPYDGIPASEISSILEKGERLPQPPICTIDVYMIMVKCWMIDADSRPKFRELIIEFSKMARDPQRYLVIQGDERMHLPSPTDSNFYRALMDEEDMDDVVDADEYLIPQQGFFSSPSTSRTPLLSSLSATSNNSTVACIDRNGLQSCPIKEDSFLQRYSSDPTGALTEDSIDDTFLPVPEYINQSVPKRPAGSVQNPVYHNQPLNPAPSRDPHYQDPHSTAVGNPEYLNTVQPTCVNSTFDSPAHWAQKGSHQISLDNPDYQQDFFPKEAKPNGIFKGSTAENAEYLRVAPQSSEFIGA
T4 sequence (Q15759 whole entry): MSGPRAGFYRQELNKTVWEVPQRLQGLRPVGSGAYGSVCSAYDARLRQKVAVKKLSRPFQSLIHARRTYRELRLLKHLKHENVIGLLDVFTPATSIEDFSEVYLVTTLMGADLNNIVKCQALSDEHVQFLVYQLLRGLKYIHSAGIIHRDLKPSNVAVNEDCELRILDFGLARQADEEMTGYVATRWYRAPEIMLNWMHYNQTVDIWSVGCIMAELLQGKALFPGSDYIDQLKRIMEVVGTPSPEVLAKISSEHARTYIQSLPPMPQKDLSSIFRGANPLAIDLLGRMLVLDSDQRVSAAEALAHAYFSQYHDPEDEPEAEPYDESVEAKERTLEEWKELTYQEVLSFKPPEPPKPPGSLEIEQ

SMILES | remaining binding at 1 µM (panel of 468 kinases [1]) | remaining binding at 1 µM (panel of 468 kinases [2]) | remaining binding at 1 µM (panel of 468 kinases [3]) | remaining binding at 1 µM (panel of 468 kinases [4]) | remaining binding at 1 µM (panel of 468 kinases [5]) | remaining binding at 1 µM (panel of 468 kinases [6]) | remaining binding at 1 µM (panel of 468 kinases [7]) | remaining binding at 1 µM (panel of 468 kinases [8]) | remaining binding at 1 µM (panel of 468 kinases [9]; KIT-autoinhibited) | remaining binding at 1 µM (panel of 468 kinases [9]; KIT) | remaining binding at 1 µM (panel of 468 kinases [10]) | remaining binding at 1 µM (panel of 468 kinases [11]) | remaining binding at 1 µM (panel of 468 kinases [12]) | remaining binding at 1 µM (panel of 468 kinases [13]) | remaining binding at 1 µM (panel of 468 kinases [14])
CNc1nc(Nc2ccc(C(=O)N3CCC(N4CCOCC4)CC3)c3c2OCO3)nc2[nH]cc(Cl)c12 [Compound 75, (7-((5-chloro-4-(methylamino)-7H-pyrrolo[2,3-d]pyrimidin-2-yl)amino)benzo[d][1,3]dioxol-4-yl)(4-morpholinopiperidin-1-yl)methanone] | 57% | 100% | 100% | 100% | 94% | 90% | 100% | 54% | 68% | 65% | 87% | 100% | 67% | 100% | 33%
CNc1nc(Nc2ccc(S(=O)(=O)N3CCC(N4CCOCC4)CC3)cc2OC)nc2[nH]cc(Cl)c12 [Compound 12, 5-chloro-N2-(2-methoxy-4-((4-morpholinopiperidin-1-yl)sulfonyl)phenyl)-N4-methyl-7H-pyrrolo[2,3-d]pyrimidine-2,4-diamine] | 73% | 100% | 100% | 100% | 75% | 83% | 100% | 51% | 95% | 100% | 82% | 100% | 76% | 100% | 96%
CNc1nc(Nc2ccc(P3(=O)CCN(C4CCOCC4)CC3)cc2OC)nc2[nH]cc(Cl)c12 [Compound 77, 4-(4-((5-chloro-4-(methylamino)-7H-pyrrolo[2,3-d]pyrimidin-2-yl)amino)-3-methoxyphenyl)-1-(tetrahydro-2H-pyran-4-yl)-1,4-azaphosphinane 4-oxide] | 74% | 100% | 100% | 100% | 87% | 83% | 100% | 52% | 93% | 99% | 90% | 100% | 80% | 100% | 97%
